# Where two headings read alike, the source gives them in different places.
# Experiments:
# [1] = biological target: T1, Tie2 receptor tyrosine kinase (Homo sapiens, UniProt Q02763); test: In vitro receptor tyrosine kinase inhibition assay (ELISA based microtitre plate assay); format: biochemical; settings: recombinant human Tie2 kinase domain lysate, ATP 5 micromolar or Km; read-out: IC50 (μM) Test (a): Inhibition of Tie2 receptor tyrosine kinase in vitro
# T1 construct: consist of only the intracellular portion C-terminal portion of the respective receptor, within which is found the kinase domain; made in house; host or cells: baculovirus/Sf21 insect cells (or alternative equivalent); cleared lysate used, not purified protein
# Experimental: Constitutive kinase activity of these recombinant proteins was determined by their ability to phosphorylate a synthetic peptide (made up of a random co-polymer of Glutamic Acid, Alanine and Tyrosine in the ratio of 6:3:1). […] Plates were washed in 50 mM HEPES pH 7.4 at room temperature to remove any excess unbound synthetic peptide.
# The immobilised phospho-peptide product of the reaction was detected by immunological methods.
# Kinase inhibition for a given compound was expressed as an IC50 value. […] The range of phosphorylation was calculated from the positive (vehicle plus ATP) and negative (vehicle minus ATP) control values.
# [2] = biological target: T2, Tie2 receptor (Homo sapiens, UniProt Q02763); test: Cellular Tie2 autophosphorylation assay (Ang1 ligand stimulated); format: cell-based
# T2 construct: one can use natural cell lines or primary cells which are known to express the receptor of choice; endogenous in cells; host or cells: EA.hy926/B3 cells
# [3] = whole cells, for example EA.hy926/B3, Ang1 ligand stimulated, read-out: IC50 (μM) Test (b): Inhibition of autophosphorylation of Tie2 receptor tyrosine kinase
# T2 sequence (Q02763 23-1124): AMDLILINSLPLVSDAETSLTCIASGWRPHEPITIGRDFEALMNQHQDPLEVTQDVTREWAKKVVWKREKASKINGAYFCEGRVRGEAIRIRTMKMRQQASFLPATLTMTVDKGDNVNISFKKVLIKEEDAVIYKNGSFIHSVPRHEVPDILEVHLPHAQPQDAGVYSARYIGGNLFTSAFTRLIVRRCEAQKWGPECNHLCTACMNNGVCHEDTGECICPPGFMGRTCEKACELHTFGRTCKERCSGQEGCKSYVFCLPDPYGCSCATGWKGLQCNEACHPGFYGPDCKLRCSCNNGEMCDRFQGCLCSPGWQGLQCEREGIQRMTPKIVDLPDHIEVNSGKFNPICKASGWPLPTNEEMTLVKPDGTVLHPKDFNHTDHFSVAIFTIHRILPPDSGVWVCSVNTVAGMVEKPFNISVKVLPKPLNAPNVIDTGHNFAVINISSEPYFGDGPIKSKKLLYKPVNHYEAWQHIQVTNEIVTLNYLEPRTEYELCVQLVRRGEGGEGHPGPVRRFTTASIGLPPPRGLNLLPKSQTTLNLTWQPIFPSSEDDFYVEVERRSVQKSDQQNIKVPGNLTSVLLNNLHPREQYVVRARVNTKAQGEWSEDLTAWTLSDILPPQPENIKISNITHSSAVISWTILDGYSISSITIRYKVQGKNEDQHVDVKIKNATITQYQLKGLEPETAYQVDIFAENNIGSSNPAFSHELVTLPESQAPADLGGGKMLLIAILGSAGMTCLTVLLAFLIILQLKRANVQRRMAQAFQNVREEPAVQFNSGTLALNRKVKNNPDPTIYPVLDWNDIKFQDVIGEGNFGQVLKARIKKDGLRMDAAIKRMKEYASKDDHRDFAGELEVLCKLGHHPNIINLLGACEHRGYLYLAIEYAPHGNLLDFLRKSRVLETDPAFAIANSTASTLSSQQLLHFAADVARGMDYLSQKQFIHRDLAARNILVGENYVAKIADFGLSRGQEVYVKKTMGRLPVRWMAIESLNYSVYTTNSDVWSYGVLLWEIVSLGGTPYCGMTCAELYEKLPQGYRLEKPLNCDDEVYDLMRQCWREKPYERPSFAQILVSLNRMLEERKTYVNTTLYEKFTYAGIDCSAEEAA
# T1 sequence (Q02763 770-1124 limits assumed): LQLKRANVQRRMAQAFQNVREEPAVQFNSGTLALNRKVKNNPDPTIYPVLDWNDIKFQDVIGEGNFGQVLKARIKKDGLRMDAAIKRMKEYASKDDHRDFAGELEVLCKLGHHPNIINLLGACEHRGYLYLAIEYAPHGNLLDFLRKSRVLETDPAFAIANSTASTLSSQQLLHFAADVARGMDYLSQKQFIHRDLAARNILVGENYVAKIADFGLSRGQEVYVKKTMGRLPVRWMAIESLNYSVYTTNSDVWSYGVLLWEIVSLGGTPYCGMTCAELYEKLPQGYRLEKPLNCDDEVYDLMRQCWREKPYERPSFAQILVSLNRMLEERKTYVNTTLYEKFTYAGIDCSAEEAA
Compound,IC50 [1] [µM],"IC50 [2, 3] [µM]",IC50 [2] [µM]
"Nc1ncnc(N)c1C#Cc1cccc(NS(=O)(=O)c2ccccc2Cl)c1 [Example 1, 2-chloro-N-{3-[(4,6-diaminopyrimidin-5-yl)ethynyl]phenyl}benzenesulfonamide]",7.5,0.78,–
"Nc1ncnc(N)c1C#Cc1cccc(NS(=O)(=O)c2cc(F)ccc2F)c1 [Example 6, N-{3-[(4,6-diaminopyrimidin-5-yl)ethynyl]phenyl}-2,5-difluorobenzenesulfonamide]",0.4,0.34,–
"Nc1ncnc(N)c1C#Cc1cccc(NS(=O)(=O)c2cccc(Cl)c2Cl)c1 [Example 3, 2,3-dichloro-N-{3-[(4,6-diaminopyrimidin-5-yl)ethynyl]phenyl}benzenesulfonamide]",3.7,–,0.29

# From patent publication US20080146599A1, “Pyrimidine Compounds Having Tie-2 (Tek) Inhibitory Activity” (ASTRAZENECA AB, priority 2005, published 2008)
